Data: patent US20230416257A1, “TOLL-LIKE RECEPTOR AGONIST” (priority 2020, published 2023)

Test system: antigen-specific T cells in the draining lymph nodes (LN) and spleen
Experiment: A/Vic murine vaccine model: cytokine secretion by antigen-stimulated T cells
Assay type: in vivo
Conditions: immunized mice, 5 days after tertiary immunization (day 33); comparison of UM-2014 and UM-1007; FIG. 4
Experimental: The adjuvanticity of liposomal formulations of UM-2014 (1 and 10 μg doses) was evaluated in an A/Vic murine vaccine model. Mice were intramuscularly immunized at day 0, 14, and 28, with blood collection at day 14 and day 28 (14dp1 and 14dp2, respectively). A tertiary immunization at day 28 was administered to assess cytokine production of antigen-specific T cells in the draining lymph nodes (LN) and spleen 5 days later (day 33).

CCCCCCCCCCCCCCCC(=O)OC[C@H](COCCOCCOCCOP(=O)(O)OCCN1CCC(Cn2c(O)nc3c(N)nc(O[C@@H](C)CCC)nc32)CC1)OC(=O)CCCCCCCCCCCCCCC [UM-1007]
cytokine secretion by antigen-stimulated T cells from draining LNs and spleen: very similar
